According to ChEMBL document CHEMBL3045499, “Chem-bioinformatics and in vitro approaches for candidate optimization: a case study of NSC745689 as a promising antitumor agent” (Med Chem Res, 2013):
Calls of active or inactive are those of the source. The calls are words filed in the database; no cut-off is given here.

Tests used:
SNB-19 = experiment: Growth inhibition of Homo sapiens (human) SNB19 cells after 48 hr by SRB assay; format: functional; settings: SNB-19, 48 h
NCI/ADR-RES = experiment: Growth inhibition of Homo sapiens (human) NCI/ADR-RES cells after 48 hr by SRB assay; format: functional
MDA-MB-468 = experiment: Growth inhibition of Homo sapiens (human) MDA-MB-468 cells after 48 hr by SRB assay; format: functional; settings: MDA-MB-468, 48 h
SF-539 = experiment: Growth inhibition of Homo sapiens (human) SF539 cells after 48 hr by SRB assay; format: functional; settings: SF-539, 48 h
T47D = experiment: Growth inhibition of Homo sapiens (human) T47D cells after 48 hr by SRB assay; format: functional
Hs-578T = experiment: Growth inhibition of Homo sapiens (human) Hs 578T cells after 48 hr by SRB assay; format: functional
NCI-H322M = experiment: Growth inhibition of Homo sapiens (human) NCI-H322M cells after 48 hr by SRB assay; format: functional
K562 = experiment: Growth inhibition of Homo sapiens (human) K562 cells after 48 hr by SRB assay; format: functional; settings: K562, 48 h
EKVX = experiment: Growth inhibition of Homo sapiens (human) EKVX cells after 48 hr by SRB assay; format: functional
NCI-H460 = experiment: Growth inhibition of Homo sapiens (human) NCI-H460 cells after 48 hr by SRB assay; format: functional; settings: NCI-H460, 48 h
MDA-MB-231 = experiment: Growth inhibition of Homo sapiens (human) MDA-MB-231/ATCC cells after 48 hr by SRB assay; format: functional; settings: MDA-MB-231, 48 h
MDA-MB-435 = experiment: Growth inhibition of Homo sapiens (human) MDA-MB-435 cells after 48 hr by SRB assay; format: functional; settings: MDA-MB-435, 48 h
SR = experiment: Growth inhibition of Homo sapiens (human) SR cells after 48 hr by SRB assay; format: functional
MCF7 = experiment: Growth inhibition of Homo sapiens (human) MCF7 cells after 48 hr by SRB assay; format: functional; settings: MCF7, 48 h
MOLT-4 = experiment: Growth inhibition of Homo sapiens (human) MOLT4 cells after 48 hr by SRB assay; format: functional; settings: MOLT-4, 48 h
HOP-92 [1] = experiment: Growth inhibition of Homo sapiens (human) HOP92 cells after 48 hr by SRB assay; format: functional; settings: HOP-92, 48 h
HOP-62 = experiment: Growth inhibition of Homo sapiens (human) HOP62 cells after 48 hr by SRB assay; format: functional; settings: HOP-62, 48 h
NCI-H522 = experiment: Growth inhibition of Homo sapiens (human) NCI-H522 cells after 48 hr by SRB assay; format: functional; settings: NCI-H522, 48 h
HL-60(TB) = experiment: Growth inhibition of Homo sapiens (human) HL-60(TB) cells after 48 hr by SRB assay; format: functional; settings: HL-60, 48 h
NCI-H23 = experiment: Growth inhibition of Homo sapiens (human) NCI-H23 cells after 48 hr by SRB assay; format: functional; settings: NCI-H23, 48 h
SNB-75 [2] = experiment: Growth inhibition of Homo sapiens (human) SNB75 cells after 48 hr by SRB assay; format: functional; settings: SNB-75, 48 h
BT-549 = experiment: Growth inhibition of Homo sapiens (human) BT549 cells after 48 hr by SRB assay; format: functional; settings: BT-549, 48 h
RPMI-8226 = experiment: Growth inhibition of Homo sapiens (human) RPMI8226 cells after 48 hr by SRB assay; format: functional; settings: RPMI-8226, 48 h
NCI-H226 = experiment: Growth inhibition of Homo sapiens (human) NCI-H226 cells after 48 hr by SRB assay; format: functional; settings: NCI-H226, 48 h
U-251 = experiment: Growth inhibition of Homo sapiens (human) U251 cells after 48 hr by SRB assay; format: functional; settings: U-251, 48 h
CCRF-CEM = experiment: Growth inhibition of Homo sapiens (human) CCRF-CEM cells after 48 hr by SRB assay; format: functional
A549 = experiment: Growth inhibition of Homo sapiens (human) A549/ATCC cells after 48 hr by SRB assay; format: functional; settings: A549, 48 h
SF-295 = experiment: Growth inhibition of Homo sapiens (human) SF295 cells after 48 hr by SRB assay; format: functional; settings: SF-295, 48 h
SF-268 = experiment: Growth inhibition of Homo sapiens (human) SF268 cells after 48 hr by SRB assay; format: functional; settings: SF-268, 48 h
Cytochrome P450 1A1 = Cytochrome P450 1A1 (Homo sapiens, UniProt P04798); experiment: Inhibition of recombinant CYP1A1 (unknown origin) using 7-ethoxyresorufin as substrate by EROD assay
SNB-75 [3] = experiment: Growth inhibition of Homo sapiens (human) SNB75 cells at 1 uM after 48 hr by SRB assay; format: functional, cell-based
HOP-92 [4] = experiment: Growth inhibition of Homo sapiens (human) HOP92 cells at 1 uM after 48 hr by SRB assay; format: functional, cell-based

Cytochrome P450 1A1, sequence (P04798 whole entry): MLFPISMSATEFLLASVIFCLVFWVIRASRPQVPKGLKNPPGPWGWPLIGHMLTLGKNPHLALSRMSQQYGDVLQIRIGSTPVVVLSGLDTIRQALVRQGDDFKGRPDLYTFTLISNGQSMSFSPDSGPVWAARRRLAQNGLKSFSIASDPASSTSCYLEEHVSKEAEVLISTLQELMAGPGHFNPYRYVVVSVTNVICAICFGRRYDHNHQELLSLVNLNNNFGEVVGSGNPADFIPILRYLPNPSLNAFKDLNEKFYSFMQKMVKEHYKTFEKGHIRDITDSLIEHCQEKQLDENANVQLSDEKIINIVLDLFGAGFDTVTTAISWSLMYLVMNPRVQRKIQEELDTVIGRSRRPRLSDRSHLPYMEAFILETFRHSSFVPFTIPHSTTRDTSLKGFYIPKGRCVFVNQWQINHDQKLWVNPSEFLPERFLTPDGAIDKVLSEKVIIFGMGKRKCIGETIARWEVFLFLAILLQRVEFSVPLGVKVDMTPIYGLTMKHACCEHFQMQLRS

SMILES	GI50 (SNB-19) [µM]	GI50 (NCI/ADR-RES) [µM]	GI50 (SF-539) [µM]	GI50 (T47D) [µM]	GI50 (Hs-578T; read-out: pGI50 (converted)) [µM]	GI50 (NCI-H322M) [µM]	GI50 (K562) [µM]	GI50 (EKVX) [µM]	GI50 (NCI-H460) [µM]	GI50 (MDA-MB-231) [µM]	GI50 (MDA-MB-435) [µM]	GI50 (SR) [µM]	GI50 (MCF7) [µM]	GI50 (MOLT-4) [µM]	GI50 (HOP-92 [1]; read-out: pGI50 (converted)) [µM]	GI50 (HOP-62) [µM]	GI50 (HL-60(TB)) [µM]	GI50 (NCI-H23) [µM]	GI50 (SNB-75 [2]; read-out: pGI50 (converted)) [µM]	GI50 (BT-549) [µM]	further results
COc1ccc(Nc2nc3sc4cc(Cl)ccc4n3c(=N)c2C#N)cc1	40.7	2.82	30.9	29.5	0.407	3.31	57.5	1.91	26.3	2.04	3.09	19.1	2.51	13.2	20.9	3.39	34.7	1.55	3.39	4.07	GI50 (MDA-MB-468): 3.55 µM; GI50 (Hs-578T; read-out: GI50): 0.406 µM; GI50 (NCI-H522): 33.1 µM; GI50 (RPMI-8226): 17 µM; GI50 (NCI-H226): 1.91 µM; GI50 (U-251): 4.07 µM; GI50 (CCRF-CEM): 17.4 µM; GI50 (A549): 50.1 µM; GI50 (SF-295): 1.7 µM; GI50 (SF-268): 4.37 µM
CSc1nc2sc3cc(Cl)ccc3n2c(=N)c1C#N	40.7	17.8	26.9	28.2	4.9	> 100	27.5	9.77	63.1	74.1	> 100	9.77	3.89	2.51	0.01	38	1.35	26.9	12.3	23.4	GI50 (Hs-578T; read-out: GI50): 1.71 µM; GI50 (HOP-92 [1]; read-out: GI50): 0.219 µM; GI50 (NCI-H522): 60.3 µM; IC50 (Cytochrome P450 1A1): 2.5 µM; growth inhibition (GI) (SNB-75 [3]): Active; GI50 (SNB-75 [2]; read-out: GI50): 0.416 µM; growth inhibition (GI) (HOP-92 [4]): Active; GI50 (RPMI-8226): 64.6 µM; GI50 (NCI-H226): 38 µM; GI50 (U-251): 30.2 µM; GI50 (CCRF-CEM): 3.55 µM; GI50 (A549): 5.89 µM; GI50 (SF-295): 2.19 µM; GI50 (SF-268): 21.4 µM
N#Cc1c(Nc2ccc(Cl)cc2)nc2sc3cc(Cl)ccc3n2c1=N	> 100	4.68	8.71	> 100	1.45	28.2	> 100	10.2	21.9	7.24	6.17	2.29	1.82	2.51	> 100	0.00457	> 100	0.646	5.01	24.5	GI50 (MDA-MB-468): 3.63 µM; GI50 (HOP-92 [1]; read-out: GI50): 1.82 µM; GI50 (NCI-H226): 2.4 µM; GI50 (U-251): 6.61 µM; GI50 (SF-295): 3.02 µM; GI50 (SF-268): 4.07 µM
